The values below come from ChEMBL document CHEMBL5500330, “Novel thiazolidin-4-one benzenesulfonamide hybrids as PPARγ agonists: Design, synthesis and in vivo anti-diabetic evaluation” (Eur J Med Chem, 2024).

Series [1] addresses T1, Peroxisome proliferator-activated receptor delta (Homo sapiens, UniProt Q03181).
T1 sequence (Q03181 whole entry): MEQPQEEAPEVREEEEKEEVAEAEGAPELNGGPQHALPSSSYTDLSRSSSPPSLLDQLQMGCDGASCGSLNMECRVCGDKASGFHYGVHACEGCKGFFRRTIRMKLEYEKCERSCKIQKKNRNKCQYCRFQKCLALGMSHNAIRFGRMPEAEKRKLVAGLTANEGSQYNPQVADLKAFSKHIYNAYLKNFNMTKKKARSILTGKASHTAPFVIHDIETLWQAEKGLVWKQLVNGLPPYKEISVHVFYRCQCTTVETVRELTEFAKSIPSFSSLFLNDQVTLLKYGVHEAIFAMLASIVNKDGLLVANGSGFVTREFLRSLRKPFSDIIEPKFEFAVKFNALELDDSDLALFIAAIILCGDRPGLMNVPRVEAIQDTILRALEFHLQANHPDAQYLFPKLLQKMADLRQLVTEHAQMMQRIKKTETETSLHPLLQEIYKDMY
Nature of the series: Agonist activity at human PPAR delta by luciferase reporter gene assay. In general terms: A reporter such as luciferase makes a cellular process visible.

Series [2] is described as follows: Acute toxicity in male Albino mouse assessed as mortality at upto 2000 mg/kg, po measured upto 7 days. It counts as organism-based. The settings on record: in vivo, 168 h, time < 7 day.
Series [3] has as its target T2, Peroxisome proliferator-activated receptor gamma (Homo sapiens, UniProt P37231).
T2 sequence (P37231 whole entry): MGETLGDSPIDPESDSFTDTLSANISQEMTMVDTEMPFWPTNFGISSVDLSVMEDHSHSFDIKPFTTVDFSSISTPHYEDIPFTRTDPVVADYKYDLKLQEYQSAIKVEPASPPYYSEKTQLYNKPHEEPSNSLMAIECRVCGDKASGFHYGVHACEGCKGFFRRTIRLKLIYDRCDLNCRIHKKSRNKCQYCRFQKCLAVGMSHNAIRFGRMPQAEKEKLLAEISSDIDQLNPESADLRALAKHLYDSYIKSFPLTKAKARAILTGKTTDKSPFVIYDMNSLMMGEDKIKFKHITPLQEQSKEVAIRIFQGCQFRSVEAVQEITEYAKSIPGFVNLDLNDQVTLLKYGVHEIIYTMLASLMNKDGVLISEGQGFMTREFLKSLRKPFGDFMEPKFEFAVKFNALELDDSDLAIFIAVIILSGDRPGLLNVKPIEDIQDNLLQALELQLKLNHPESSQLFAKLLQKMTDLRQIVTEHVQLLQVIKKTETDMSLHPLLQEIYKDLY
Nature of the series: Agonist activity at human PPAR gamma by luciferase reporter gene assay.

Series [4] deals with Rattus norvegicus. Nature of the series: Antidiabetic activity against STZ induced Albino Wistar rat diabetic model assessed as hypoglycaemic effect at 36 mg/kg, po administered as single dose and measured after 15 days. It counts as functional. The settings on record: time 15 day.
The target of series [5] is T3, Peroxisome proliferator-activated receptor alpha (Homo sapiens, UniProt Q07869).
T3 sequence (Q07869 whole entry): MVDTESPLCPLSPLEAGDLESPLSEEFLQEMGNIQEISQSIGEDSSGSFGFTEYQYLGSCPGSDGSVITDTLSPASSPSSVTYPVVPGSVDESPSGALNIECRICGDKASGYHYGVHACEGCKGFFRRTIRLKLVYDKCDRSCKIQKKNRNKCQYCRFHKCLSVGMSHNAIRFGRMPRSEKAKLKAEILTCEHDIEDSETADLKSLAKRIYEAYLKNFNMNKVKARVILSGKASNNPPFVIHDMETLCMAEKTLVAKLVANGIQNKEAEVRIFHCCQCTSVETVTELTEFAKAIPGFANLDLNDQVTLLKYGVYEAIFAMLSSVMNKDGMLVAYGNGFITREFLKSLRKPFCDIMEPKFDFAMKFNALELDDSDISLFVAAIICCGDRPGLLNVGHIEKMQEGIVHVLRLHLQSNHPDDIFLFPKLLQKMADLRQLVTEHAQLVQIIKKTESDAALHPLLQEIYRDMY
Description: Agonist activity at human PPAR alpha by luciferase reporter gene assay.

Series [6] concerns Rattus norvegicus. Nature of the series: Antidiabetic activity against NA-STZ induced Wistar rat model of type 2 diabetes assessed as increase in C-peptide level at 36 mg/kg, po measured after 21 days by ELISA method relative to control. It counts as functional. The settings on record: time 21 day.
Series [7] deals with Rattus norvegicus. Nature of the series: Antidiabetic activity against NA-STZ induced Wistar rat model of type 2 diabetes assessed as decrease in blood glucose level at 36 mg/kg, po measured after 21 days relative to control. Conditions: time 21 day. Set-up: scale not given: the % may be the effect or the level left. The format is functional.

For the molecule `COc1cc(/C=C2\SC(Nc3ccc(S(N)(=O)=O)cc3)=NC2=O)ccc1OCCc1ccccc1`, the EC50 (usually the concentration needed to bring the measured effect to its halfway point) came out at 16.3 µM in series [1] and 11.1 µM in series [3]. Further, the Activity entry in series [2] is given as “Toxic”.

In the case of `NS(=O)(=O)c1ccc(-n2cc(/C=C3\SC(=O)NC3=O)c(-c3ccc4ccccc4c3)n2)cc1`, the Activity in series [4] is 134.1 mg/dL.

As to `COc1cc(/C=C2\SC(Nc3ccc(S(N)(=O)=O)cc3)=NC2=O)ccc1OCc1ccc(C)cc1`, the results for the EC50 in series [1] and in series [5] were 48.1 µM and 40.9 µM, respectively. Besides, the Activity result in series [2] was “Toxic”.

`CCc1ccc(CCOc2ccc(CC3SC(=O)NC3=O)cc2)nc1` (stereo not given) [PIOGLITAZONE]: the Activity in series [6] was found to be 38.6%; in series [7] it was 35%; in series [4], 132.2 mg/dL.

As to `CC(C)(Oc1ccc(CCNC(=O)c2ccc(Cl)cc2)cc1)C(=O)O` [BEZAFIBRATE], the EC50 in series [1] came to 25.9 µM; in series [3], 83.3 µM.

`COc1cccc(COc2ccc(/C=C3\SC(Nc4ccc(S(N)(=O)=O)cc4)=NC3=O)cc2OC)c1`: the EC50 in series [1] worked out at 15.4 µM; in series [3] it was 3.98 µM. The Activity entry in series [2] is on record as “Non-Toxic”.

Take `COc1cccc(COc2cc(/C=C3\SC(Nc4ccc(S(N)(=O)=O)cc4)=NC3=O)ccc2OC)c1`: the values for the 50% effective concentration (EC50) in series [5] and in series [3] were 22.7 µM and 2.94 µM, respectively. For the same molecule, the Activity entry in series [2] is given as “Non-Toxic”.

Regarding `NS(=O)(=O)c1ccc(NC2=NC(=O)/C(=C/c3ccc(OCc4ccc(Cl)cc4)cc3)S2)cc1`, the concentration for a half-maximal effect (EC50) in series [1] came out at 35.2 µM. Besides, the Activity result in series [2] is on record as “Toxic”.
